Results as given in patent publication US20170369523A1, “TEMPLATE-FIXED BETA-HAIRPIN PEPTIDOMIMETICS THAT ARE LIGANDS FOR G-PROTEIN-COUPLED RECEPTORS (GPCRS) AND ARE MODULATORS OF TRANSCRIPTION FACTORS AND COACTIVATORS” (POLYPHOR AG, priority 2008, published 2017).
Where two headings read alike, the source gives them in different places. Bridge positions count the residues as written; N and C are the ends. Square brackets hold non-standard residues; d marks the D form. Peptide text beside a SMILES is read from it. Trp(6-Cl) = N[C@@H](Cc1c[nH]c2cc(Cl)ccc12)C(=O)O

T1: human UTR2 receptor (Homo sapiens, UniProt Q9UKP6)
T1 construct: expressed in transfected cells; host or cells: mouse pre-B cell line 300-19
T1 sequence (Q9UKP6 1-389): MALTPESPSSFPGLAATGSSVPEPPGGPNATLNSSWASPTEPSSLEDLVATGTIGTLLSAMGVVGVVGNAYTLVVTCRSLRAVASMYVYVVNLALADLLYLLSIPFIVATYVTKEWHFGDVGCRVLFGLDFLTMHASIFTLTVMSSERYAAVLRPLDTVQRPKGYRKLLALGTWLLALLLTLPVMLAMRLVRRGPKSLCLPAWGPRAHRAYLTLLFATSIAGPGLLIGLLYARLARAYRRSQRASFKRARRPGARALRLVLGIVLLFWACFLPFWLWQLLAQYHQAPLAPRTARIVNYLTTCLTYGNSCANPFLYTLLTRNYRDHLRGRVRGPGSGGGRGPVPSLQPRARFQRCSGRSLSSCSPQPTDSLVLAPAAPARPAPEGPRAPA

T2: NCoA-1 (Homo sapiens, UniProt Q15788)
T2 sequence (Q15788 257-385 limits assumed): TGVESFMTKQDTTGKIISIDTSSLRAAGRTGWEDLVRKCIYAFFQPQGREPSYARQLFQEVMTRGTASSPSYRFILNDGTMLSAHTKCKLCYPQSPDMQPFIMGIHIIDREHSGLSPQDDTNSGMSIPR

T3: human UTR2 receptor (human, UniProt Q9UKP6 1-389)
T3 sequence (looked up): T1 sequence (Q9UKP6 1-389)

B1: Ex. 34 (peptide)
peptide: cyclo(DCF[dW]KYCV[dP]P)
modifications: disulfide 2-7
B2: Ex. 30 (peptide)
peptide: cyclo(DCFWKYCL[dE]P)
modifications: disulfide 2-7
SMILES: CC(C)C[C@@H]1NC(=O)[C@@H]2CSSC[C@H](NC(=O)[C@H](CC(=O)O)NC(=O)[C@@H]3CCCN3C(=O)[C@@H](CCC(=O)O)NC1=O)C(=O)N[C@@H](Cc1ccccc1)C(=O)N[C@@H](Cc1c[nH]c3ccccc13)C(=O)N[C@@H](CCCCN)C(=O)N[C@@H](Cc1ccc(O)cc1)C(=O)N2
B3: Ex. 31 (peptide)
peptide: cyclo(DCFWKYCV[dP]P)
modifications: disulfide 2-7
B4: Ex. 33 (peptide)
peptide: cyclo(DCYWKYCL[dP]P)
modifications: disulfide 2-7
SMILES: CC(C)C[C@@H]1NC(=O)[C@@H]2CSSC[C@H](NC(=O)[C@H](CC(=O)O)NC(=O)[C@@H]3CCCN3C(=O)[C@H]3CCCN3C1=O)C(=O)N[C@@H](Cc1ccc(O)cc1)C(=O)N[C@@H](Cc1c[nH]c3ccccc13)C(=O)N[C@@H](CCCCN)C(=O)N[C@@H](Cc1ccc(O)cc1)C(=O)N2

Experiments:
human UTR2 receptor [1] = target: T1, human UTR2 receptor; experiment: Ca2+ assay: UTR2 receptor-agonizing and antagonizing activity (calcium mobilization, Flexstation); type: cell-based
From the text: 2.3. Ca^2+− Assay: UTR2 Receptor-Agonizing and Antagonizing Activity of the Peptides
The mouse pre-B cell line 300-19 was stably transfected with the cDNA encoding the human UTR2 receptor (GenBank Acc# NM_018949), and expression was confirmed with a positive calcium signal in response to human urotensin (Sigma Aldrich). Increases in intracellular calcium were monitored using a Flexstation 384 (Molecular Devices, Sunnyvale, Calif.). The cells were batch loaded with the Calcium 4 Assay kit (Molecular Devices) in assay buffer (Hanks Balanced salt solution, HBSS, 20 mM HEPES, pH 7.4, 0.1% BSA) for 1 h at room temperature and labeled cells were dispensed into either black 96 well or 384 well assay plates (Greiner). Calcium mobilization induced by urotensin or test compounds was measured in the Flexstation 384 (excitation, 485 nm; emission, 525 nm) for 70 seconds. Agonist activity was determined by direct addition of ligand or peptides, while antagonists were identified by spiking the cells with test compounds prior to urotensin addition. A dose response curve (compound concentration versus % maximum response for urotensin) was determined for each active agonist and antagonist and was fitted to a four parameter logistic equation using SoftmaxPro 4.8 (Molecular Devices), from which EC50% and IC50% values were calculated.

in vitro [2] = type: cell-based
Experimental: (§1) The cytotoxicity of the peptides to HELA cells (Acc57) and COS-7 cells (CRL-1651) was determined using the MTT reduction assay. Briefly, the method was as follows: 7000 HELA cells/well and 4500 COS-7 cells/well were seeded and grown in 96-well microtiter plates for 24 h at 37° C. at 5% CO2. Thereafter, time zero (Tz) was determined by MTT reduction (see below). The supernatant of the remaining wells was discarded, and fresh medium and compounds in serial dilutions (12.5, 25 and 50 μM, triplicates) were pipetted into the wells. After incubation of the cells for 48 h at 37° C. at 5% CO2 the supernatant was discarded again and 100 μL MTT reagent (0.5 mg/mL in RPMI1640 and DMEM, respectively)/well was added. Following incubation at 37° C. for 2 h the media were aspirated and the cells were spiked (100 μl isopropanol/well). The absorbance of the solubilized formazan was measured at 595 nm (OD595peptide). For each concentration averages were calculated from triplicates. The percentage of growth was calculated as follows: (OD595peptide-OD595Tz-OD595Empty well)/(OD595Tz-OD595Empty well)×100%. The GI50 (Growth Inhibition) concentrations were calculated for each peptide by using a trend line function for the concentrations (50, 25, 12.5 and 0 μM), the corresponding percentages and the value 50, (=TREND (C50:C0,%50:%0,50).

[3] = Plasma stability, human plasma; type: in vitro ADME; settings: 37° C., sampled up to 240 min
Experimental: (§2) The stability of the peptides in human and mouse plasma was determined by applying the following method: 315 μl/deep well of freshly thawed human plasma (Basler Blutspende-dienst) and mouse plasma (Harlan Sera-Lab, UK), respectively, were spiked with 35 μl/well of compound in PBS (100 μM, triplicate) and incubated at 37° C. At t=0, 15, 30, 60, 120 and 240 min aliquots of 50 μl were transferred to filtration plate wells containing 150 μl/well of acetonitrile. Following shaking for 2 min the occurred suspensions were filtrated by vacuum and finally. 100 μl of each filtrate were transferred to a propylene microtiter plate, and analyzed by LC/MS as follows: Column: Waters, XBridge C18, mobile phases: (A) water+0.1% formic acid and (B) acetonitrile/water, 95/5 (v/v)+0.1% formic acid, gradient: 5%-100% (B) in 2 minutes, electrospray ionization, MRM detection (triple quadrupole). The peak areas were determined and triplicate values were averaged. The stability was expressed in percent of the initial value at t=0. (tx/t0×100). By using the TREND function of EXCEL (Microsoft Office 2003) T1/2 were determined.

[4] = test system: human red blood cells (hRBC); type: cell-based; settings: red cells of human, 1 h
Experimental: The peptides were tested for their hemolytic activity against human red blood cells (hRBC). Fresh hRBC were washed three times with phosphate buffered saline (PBS) and centrifuged for 10 min at 2000×g. Compounds (100 μM) were incubated with 20% hRBC (v/v) for 1 h at 37° C. The final erythrocyte concentration was approximately 0.9×10^9 cells/mL. A value of 0% and 100% cell lyses, respectively, was determined by incubation of hRBC in the presence of PBS alone and 0.1% Triton X-100 in H2O, respectively. The samples were centrifuged, the supernatants were 20-fold diluted in PBS buffer and the optical densities (OD) were measured at 540 nm. The 100% lyses value (OD540H2O) gave an OD540 of approximately 1.3-1.8. Percent hemolysis was calculated as follows: […]

[5] = Plasma stability, mouse plasma; type: in vitro ADME; settings: 37° C., sampled up to 240 min
Experimental: as §2

in vitro [6] = type: cell-based; remark: listed apart in the source
Experimental: as §1

NCoA-1 = target: T2, NCoA-1; experiment: Competition fluorescence polarization assay: NCoA-1 binding affinities of peptides (STAT6/NCoA-1 interaction); settings: competition with FluoSTAT6 (200 nM), NCoA-1 1 μM; Ki calculated from IC50; read-out: Ki [μM], peptide binding to NCoA-1
Experimental: 2.4. Fluorescence Polarization Assay: NCoA-1 Binding Affinities of Peptides
The mixtures were shaken thoroughly. Fluorescence polarization was measured on a SPECTRAmax M5 spectrometer (Molecular device) following 5-30 min incubation at room temperature. FluoSTAT6 was excited at 490 nm and emission polarization was detected at 525 nm. 40 intensity measurements were collected for each well, 20 at horizontal position of the dynamic polarizer, 20 at parallel position. As the fraction of FluoSTAT6 bound to NCoA-1 is correlated to the fluorescence polarization (FP), after normalization, the fraction of bound FluoSTAT6 (B) was determined, and the KD was calculated according to B=[(1+P/R+KD/R)−((1+P/R+KD/R)^2−4P/R)^0.5]/2, wherein P is the total probe concentration, R the total protein concentration and KD the dissociation constant (M. H. Roehrl, J. Y. Wang, G. Wagner, Biochemistry 2004, 3, 16056).
The mixture was completed by a HEPES buffer solution of NCoA-1 (1 μM final concentration) and processed as described above. STAT6Y (C-terminal tyrosine extended STAT6 794-814 peptide) was used as a positive control. As the total fluorescence intensity of FluoSTAT6 remains similar for all samples, the fraction of peptide bound to NCoA-1 is correlated to the fluorescence polarization.
Following normalization data were fitted with IGORpro Software® (WaveMetrics, Lake Oswego, Oreg., USA) to a sigmoid equation to determine IC50 values. The Ki values were calculated from IC50 values according to the method described by Nikolovska-Coleska et al. Anal. Biochem., 2004, 332, 261).

human UTR2 receptor [7] = target: T3, human UTR2 receptor; experiment: cell-based or functional assay

Ki (NCoA-1)	EC50% (Ca2+ assay, agonist activity) (human UTR2 receptor [7])	Molecule	EC50 (human UTR2 receptor [1])	GI50 (in vitro [2])	Plasmastability human pl. T1/2 [3]	Hemolysis at 100 μM [%] [4]	Plasmastability mouse pl. T1/2 [5]	GI50 (in vitro [6])
–	–	CC(C)C[C@@H]1NC(=O)[C@@H]2CSSC[C@H](NC(=O)[C@H](CC(=O)O)NC(=O)[C@@H]3CCCN3C(=O)[C@H]3CCCN3C1=O)C(=O)N[C@@H](Cc1ccc(O)cc1)C(=O)N[C@@H](Cc1c[nH]c3ccccc13)C(=O)N[C@@H](CCCCN)C(=O)N[C@@H](Cc1ccc(O)cc1)C(=O)N2 [compound 33]	< 0.002 µM	> 50 µM	4 h	0%	4 h	> 50 µM
–	–	CC(C)C[C@@H]1NC(=O)[C@@H]2CSSC[C@H](NC(=O)[C@H](CC(=O)O)NC(=O)[C@@H]3CCCN3C(=O)[C@@H](CO)NC1=O)C(=O)N[C@@H](Cc1ccccc1)C(=O)N[C@@H](Cc1c[nH]c3ccccc13)C(=O)N[C@@H](CCCCN)C(=O)N[C@@H](Cc1ccc(O)cc1)C(=O)N2 [Ex. 28]	< 0.002 µM	> 50 µM	4 h	0%	4 h	> 50 µM
3.1 µM	–	C[C@@H]1NC(=O)[C@H](CS)NC(=O)[C@H](Cc2c[nH]c3cc(Cl)ccc23)NC(=O)[C@H](CCC(=O)O)NC(=O)[C@H](Cc2ccccc2)NC(=O)[C@@H]2CCCN2C(=O)[C@H]2CCCN2C(=O)[C@H](Cc2ccccc2)NC(=O)[C@H](CCC(=O)O)NC(=O)[C@H](Cc2c[nH]c3ccccc23)NC1=O [compound 15] (cyclo(FE[Trp(6-Cl)]CAWEF[dP]P))	–	–	–	–	–	–
–	–	CC(C)[C@@H]1NC(=O)[C@@H]2CSSC[C@H](NC(=O)[C@H](CC(=O)O)NC(=O)[C@@H]3CCCN3C(=O)[C@H]3CCCN3C1=O)C(=O)N[C@@H](Cc1ccccc1)C(=O)N[C@H](Cc1c[nH]c3ccccc13)C(=O)N[C@@H](CCCCN)C(=O)N[C@@H](Cc1ccc(O)cc1)C(=O)N2 [compound 34]	< 0.002 µM	> 50 µM	4 h	0%	4 h	> 50 µM
–	–	CC(C)C[C@@H]1NC(=O)[C@@H]2CSSC[C@H](NC(=O)[C@H](CC(=O)O)NC(=O)[C@@H]3CCCN3C(=O)[C@@H](CCC(=O)O)NC1=O)C(=O)N[C@@H](Cc1ccccc1)C(=O)N[C@@H](Cc1c[nH]c3ccccc13)C(=O)N[C@@H](CCCCN)C(=O)N[C@@H](Cc1ccc(O)cc1)C(=O)N2 [compound 30]	< 0.002 µM	> 50 µM	4 h	0%	4 h	> 50 µM
–	–	CC(C)[C@@H]1NC(=O)[C@@H]2CSSC[C@H](NC(=O)[C@H](CC(=O)O)NC(=O)[C@@H]3CCCN3C(=O)[C@H]3CCCN3C1=O)C(=O)N[C@@H](Cc1ccccc1)C(=O)N[C@@H](Cc1c[nH]c3ccccc13)C(=O)N[C@@H](CCCCN)C(=O)N[C@@H](Cc1ccc(O)cc1)C(=O)N2 [compound 31]	< 0.002 µM	> 50 µM	4 h	0%	4 h	> 50 µM
–	< 0.002 µM	B1	–	–	–	–	–	–
–	< 0.002 µM	B2	–	–	–	–	–	–
–	< 0.002 µM	B3	–	–	–	–	–	–
–	< 0.002 µM	B4	–	–	–	–	–	–
